# Results published in patent publication US12286439B2, “Inhibitors of ERK nuclear translocation” (Yeda Research and Development Co. Ltd., priority 2018, dated 2025).
# Entries after “also recorded” stand apart in the source; their conditions may differ.
# Tests used:
# PC3 cells = test: Dose-response analysis, PC3 cells; type: cell-based; conditions: dose response, 72 hours
# Procedure: (§1) FIG. 15A presents dose response curves of compounds C17, D3, D11 and D14 on 8 cancer cells. Five melanoma cell lines (A2185, A2352, A2024, A2058 and LOX-IMVI), HeLa, HCT-116 and PC3 cells were grown in 1% FCS media containing either DMSO (0.1%), EPE peptide (10 μM), or Compounds C17, D3, D11, D14 at the indicated concentrations, for 72 hours. Viable cells were quantified by staining with methylene blue. Data presented as percentage of DMSO control ±SE of triplicates. […] IC50 values were calculated by interpolation in the curves in FIG. 15A. […] Bar graphs represent average viability respect to DMSO control ±SE of triplicates.
# (§2) Cell Viability (IC50) Assay:
# (§3) Cells were seeded at a density of 4000 cells per well into 96-well plates in complete medium. After 24 hours, medium was replaced by 1% FCS (fetal calf serum) containing appropriate treatments. Fresh medium containing the same agents was replaced every day. After 96 hours, cell viability was assessed using the CellTiter-Glo reagent (Promega; Madison, WI). IC50 values were determined using GraphPad Prism.
# [1] = system: melanoma cells (A2185, A2352, A2024, A2058 and LOX-IMVI); test: Dose-response analysis (IC50 assay), melanoma cells; type: cell-based; conditions: calculated by interpolation in the dose response curves
# Procedure: as §1, §2, §3
# mammalian cells = conditions: Ananthan et al., Tuberculosis (Edinb) 2009; cited from earlier work
# A2185 and A2352 cells = test: Viability assay (methylene blue), two BRAF melanoma cells; type: cell-based; conditions: for cytotoxicity at 1 µM: both melanoma cell lines, read-out: reduction of viability
# Procedure: FIGS. 10A, 10B and 10C present data from screening the 20 analogs of Compound Z2 (“C-compounds”) showing three particularly active anti-proliferative compounds. […] A2185 and A2352 cells were grown in 1% FCS containing DMSO (0.1%), EPE peptide, Compound Z56, Compound Z2 or C-compounds (10 μM), for 72 hours. Compounds were categorized according to activity: (1) active, below 40%; (2) moderate activity, below 80%; (3) not active, above 80%. […] A2185 and A2352 cells were grown in 1% FCS containing DMSO (0.1%), EPE peptide (10 μM), compounds Z56, Z2 or selected C-compounds (3 μM), for 72 hours. Empty squares/circles represent individual data points of proliferation. Full squares/circles indicate average proliferation of 2 independent experiments in triplicate±SE. Bold horizontal line defines arbitrary activity threshold of activity below 40%. FIG. 10C presents dose response curves of active C-compounds compounds. A2185 and A2352 were grown in 1% FCS media containing DMSO (0.1%), EPE peptide, Z56, Z2 (10 μM) or compounds C17, C22 and C23 (0.1-10 μM), for 72 hours. […] Cell viability was measured by staining with methylene blue. Data presented as percentage of DMSO control. Bar graphs represent average of 2 independent experiments done in triplicates ±SE.
# FIG. 13 presents a graph showing the effect of analogs of Compound C17 (“D-compounds”) on cell viability at a concentration of 10 μM. A2185 and A2352 cells were grown in 1% FCS media containing DMSO (0.1%) EPE peptide (10 μM), Compounds Z56, Z2, C17 (10 μM) as controls, and D-Compounds (10 μM), for 72 hours. Viable cells were measured by staining with methylene blue. Bar graphs represent average of 2 independent experiments done in triplicates. Data presented as percentage of DMSO proliferation ±standard error.
# FIG. 14 presents a graph showing the effect of analogs of Compound C17 (“D-compounds”) on cell viability at a concentration of 1 μM. A2185 and A2352 cells were grown in 1% FCS media containing DMSO (0.1%), EPE peptide (10 μM), Compounds Z56, Z2 and C17 (1 and 10 μM) as controls, and D-compounds (1 μM), for 72 hours. Viable cells were measured by staining with methylene blue. Bar graphs represent average of 2 independent experiments done in triplicates. Data presented as percentage of DMSO proliferation ±standard error.
# Cells were seeded at low confluence into 24, 48 or 96-well plates in complete medium. After 24 hours, medium was replaced by 1% FCS (fetal calf serum) containing appropriate treatments. Fresh medium containing the same agents was replaced every day. After 72 or 96 hours of treatment, cells were fixed with 4% formaldehyde overnight at 23° C., washed once with 0.1 M borate buffer (pH 8.5) for 10 minutes, and stained with of 1% methylene blue in 0.1 M borate buffer (pH 8.5) for 30 minutes. Excess stain was washed out with distilled water. Color was extracted by adding 0.1 M HCl (3 hours, 23° C.), and absorbance measured at 595 nm in an ELISA reader. For time course experiments, attached cells were fixed and measured at 0, 24, 48, 72 and 96 hours. For dose-response experiments, cells were treated with indicated concentrations of reagent, fixed and stained after 72 hours as above.
# The ability of the selected compounds to reduce cell viability of two BRAF melanoma cells (A2185 and A2352) was evaluated. Initially, all compounds were assayed at a relatively high concentration of 10 μM.
# [2] = system: anti-tubercular activity (unknown mechanism); conditions: Ananthan et al., Tuberculosis (Edinb) 2009; cited from earlier work
# LOX-IMVI melanoma cells = test: Dose-response analysis (IC50), LOX-IMVI cells; type: cell-based; conditions: Homo sapiens
# Procedure: as §1, §2, §3
# [3] = system: ERK1/2 nuclear translocation; test: Determination of ERK1/2 localization by fluorescence microscopy after TPA stimulation; type: cell-based; conditions: for inhibition of stimulated ERK1/2 nuclear translocation: 1 μM, 2 h
# Procedure: Determination of Protein Localization by Fluorescence Microscopy:
# Indicated cells were seeded on coverslips (coated with 0.001% w/v poly-L-lysine or not, depending on the cell line) at 50% confluency. After the indicated treatment, cells were fixed in 4% paraformaldehyde/PBS for 20 minutes on an ice surface, permeabilized with 0.1% Triton X-100/PBS for 5 minutes at 23° C., then blocked in 2% BSA/PBS for 30 minutes at 23° C. The fixed cells were sequentially incubated with appropriate antibodies (in 2% BSA/PBS, 1.5 hour), washed 3 times with PBS^−/−, and followed by incubation with either Cy-2-conjugated or rhodamine-conjugated secondary antibodies (1:200) and with DAPI ([…]; 1:100) in 2% BSA/PBS for 45 minutes. Slides were analyzed and photographed by a fluorescence microscope (Olympus BX51, ×40). Background correction, and contrast adjustment of raw data images were performed using Photoshop (Adobe, CA, USA).
# The effect of Z56 was compared with that of the inhibitory effect of EPE peptide on nuclear translocation of ERK1/2.
# The effects of the compounds on ERK1/2 nuclear translocation were evaluated in three cell lines (HeLa cells and two melanoma cell lines, A2185 and A2352), by treating the cells with each compound for two hours, and determining nuclear translocation using fluorescent anti-ERK antibodies, according to procedures described hereinabove.
# A2058 cells = test: Dose-response analysis, A2058 cells; type: cell-based; conditions: dose response, 72 hours
# Procedure: as §1, §2, §3
# [4] = system: A2185, A2352, A2024, A2058, LOX-IMVI, HeLa, HCT-116 and PC3 cells; test: Dose-response analysis (IC50 assay) in eight cancer cell lines; type: cell-based; conditions: for potency in reducing cell viability relative to Compound D14 / potency in reducing cell viability relative to Compound C17: 72 hours; for potency in reducing cell viability relative to Compound D14: in seven of the eight cell lines; for potency in reducing cell viability relative to Compound C17: in six of the eight tested cell lines
# Procedure: as §1
# Cell Viability (IC50) Assay: […]
# [5] = TPA 100 nM, 15 minutes, A2185 cells
SMILES,viability of PC3 cells (PC3 cells),IC50 [1],cytotoxic activity in mammalian cells (mammalian cells),"cell viability at lower concentration (A2185 and A2352 cells; 3 μM, 72 hours, 1% FCS)","viability at 10 µM (A2185 and A2352 cells; 10 μM, 72 hours, 1% FCS, active below 40%, moderate below 80%, not active above 80%, read-out: cell viability (percentage of DMSO control))","cell viability, dose response (A2185 and A2352 cells; 0.1-10 μM, 72 hours, 1% FCS)",activity in SAR summary of FIGS. 10A-10C (cell viability) (A2185 and A2352 cells; comparison with Compound Z2 or named analog),"concentration at which activity is already exhibited (A2185 and A2352 cells; dose response 0.1-10 μM, 72 hours)",IC50 (A2185 and A2352 cells; potency summarised from viability results of Example 6),anti-tubercular activity in high-throughput screening [2],IC50 (LOX-IMVI melanoma cells),"relative potency in blocking nuclear accumulation of ERK1/2 ([3]; 10 μM, 2 hours, A2185 cells)","nuclear accumulation of ERK1/2 upon TPA stimulation ([3]; 10 μM, 2 hours, TPA 100 nM, 15 minutes, A2185 and A2352 cells)","cytotoxicity at 1 µM (A2185 and A2352 cells; 72 hours, 1% FCS)",reducing the viability of A2058 cells (A2058 cells),"inhibition of stimulated ERK1/2 nuclear translocation [3, 5]",potency in reducing cell viability relative to Compound D14 [4],potency in reducing cell viability relative to Compound C17 [4],selectivity (pattern of effect across cell types compared with EPE peptide) ([4]; eight cancer cell lines),IC50 values compared to Compound C17 ([4]; eight cancer cell lines)
O=S1(=O)C=CC2ON=C(c3ccc(C(F)(F)F)cc3)C21 (centres unmarked) [Compound C17],significantly decreased,400 to 1300 nM,without presenting cytotoxic activity,consistently strong anti-viability effect,< 40%,dose dependent manner; also recorded: as potent in reducing the viability of A2352 cells,surprisingly superior to the ester group of Compound Z2,0.3 µM,~1000 nM,hit,~20 nM,more potent than Compounds C22 and C23,inhibited,,,,,,,
O=S1(=O)C=CC2ON=C(c3cc(Cl)cc(Cl)c3)C21 (centres unmarked) [Compound D3],did not,40 to 250 nM,,,,,,,,,,,,≤ 90%,strong effect,convincing activity; also recorded: most potent of the three tested compounds,slightly more potency than Compound D14,significantly more potency than Compound C17,more selective than Compounds C17 and D14,
O=S1(=O)C=CC2ON=C(c3ccc(Cl)c(Cl)c3)C21 (centres unmarked) [Compound D11],did not,40 to 250 nM,,,,,,,,,,,,≤ 90%,strong effect,convincing activity,slightly more potency than Compound D14,significantly more potency than Compound C17,more selective than Compounds C17 and D14,
O=S1(=O)C=CC2ON=C(c3c[nH]c4ccccc34)C21 (centres unmarked) [Compound D14],significantly decreased,,,,,,,,,,,,,≤ 90%,,convincing activity,,significantly more potency than Compound C17,less selective,significantly lower IC50 values compared to Compound C17
